Common to all, as to assay: growth of human tumour cells (NCI), 48 h
Assay [1] has as its system A498 renal.
In assay [2] the test system is BT-549 breast.
Assay [3] deals with CAKI-1 renal.
Assay [4] has as its system HCT-15 colon.
The test system of assay [5] is HT29 colon.
For assay [6], the system named is LOX IMVI melanoma.
Assay [7] has as its system NCI-H226 lung.
The subject of assay [8] is NCI/ADR-RES ovarian.
Assay [9] relates to OVCAR-4 ovarian.
Assay [10] relates to PC-3 prostate.
Assay [11] relates to SK-OV-3 ovarian.
For assay [12], the system named is SNB-19 CNS.
Assay [13] relates to U251 CNS.
Assay [14] relates to UACC-62 melanoma.
Assay [15] deals with ACHN renal.
The test system of assay [16] is EKVX NSCLC.
Assay [17] has as its system HCT-116 colon.
Assay [18] concerns MDA-N.
Assay [19] deals with SF-539 CNS.
The subject of assay [20] is MDA-MB-231 breast.

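Following 48 hours of exposure in 96-well plates, responses at five concentrations were used to interpolate endpoints linearly. The concentration for full growth arrest is given as TGI.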 Where only a bound is given, the exact number is not on record here.

Regarding `O=C(N/N=C\C(F)(F)F)c1ccncc1`, the TGI in assay [1], in [2], in [3], in [4], in [5] and in assay [6] was more than 100 µM throughout. Further, the TGI in [7], in [8], in [9], in assay [10], in assay [11] and in assay [12] was more than 100 µM throughout. Besides, the TGI in assay [13] and in assay [14] was more than 100 µM throughout.
In the case of `CN(C)CCN(C(=Nc1ccccc1)N1CCCC1)c1ccccc1`, the TGI in assay [15], in assay [2], in [3], in [16], in assay [17] and in [4] was more than 100 µM throughout. Moreover, the TGI was 92.4 µM in assay [5]; more than 100 µM in assay [6]; 86.6 µM in assay [18]; more than 100 µM in assay [7]; more than 100 µM in assay [8]; more than 100 µM in [9]. The TGI in assay [10], in assay [11], in assay [12], in assay [13] and in [14] was more than 100 µM in each case.
Turning to `COC(=O)C1=C(C)N2CCOC2CC1c1ccccc1` (configuration not stated), the TGI in [15], in assay [3], in assay [16], in assay [17], in [5] and in assay [7] was more than 100 µM throughout. In addition, the TGI in assay [9], in [19], in assay [12] and in assay [14] was more than 100 µM each time.
Turning to `COc1cc(C(=O)Nc2cc(C(N)=O)cc(OC)c2OC)cc(NC(=O)/C=C/c2ccccc2)c1OC`, the TGI in [15] is more than 100 µM; in assay [2], more than 100 µM; in [16] it was more than 100 µM; in assay [4], more than 100 µM; in assay [5], more than 100 µM; in assay [20] it was 57.5 µM. Also, the TGI in [18], in assay [8], in assay [9], in assay [10], in assay [19] and in assay [11] was more than 100 µM in each case. Besides, the results for the TGI in assay [12] and in assay [14] were more than 100 µM and 35.6 µM, respectively.
In the case of `COc1cc2oc(=O)ccc2cc1CC=C(C)C`, the TGI in assay [1] is more than 100 µM; in assay [15], more than 100 µM; in assay [2] it was 81 µM; in [3], more than 100 µM; in assay [16] it was more than 100 µM; in [17] it was more than 100 µM. The TGI in assay [5] is 77.7 µM; in [6], more than 100 µM; in assay [20], more than 100 µM; in assay [18] it was more than 100 µM; in assay [7], 98.6 µM; in assay [8] it was 79.3 µM. Moreover, the TGI in assay [9], in assay [10], in assay [19], in assay [12] and in assay [13] was more than 100 µM throughout.
In the case of `CN1C(=O)C2C=C3CCCCC3=CC2N(C)C1=O` (configuration not stated), the TGI in [1], in assay [15], in assay [2], in [3], in assay [16] and in assay [17] was more than 100 µM each time. The TGI in assay [4], in assay [5], in [6], in [20], in [18] and in assay [7] was more than 100 µM each time. For the same compound, the TGI in assay [8], in assay [9], in assay [10], in assay [19], in assay [11] and in assay [12] was more than 100 µM in each case. Also, the TGI in assay [13] and in [14] was more than 100 µM throughout.
